Source: US12336981B2, “Compounds and compositions for the inhibition of NAMPT” (Valo Health, Inc., priority 2010, dated 2025)
Several values for one entry are separate records, joined by “and”; a condition that tells them apart may be missing. Equal entries are not always repeated. Where two headings read alike, the source gives them in different places.

Columns and labels:
NAMPT = biological target: T1, NAMPT (Homo sapiens, UniProt P43490); assay: Biochemical inhibition assay: NAMPT enzymatic reaction, NMN quantified by mass spectrometry; details: read-out: Biochem IC50
T1 construct: His tag; host or cells: E. coli
T1 sequence (P43490 whole entry): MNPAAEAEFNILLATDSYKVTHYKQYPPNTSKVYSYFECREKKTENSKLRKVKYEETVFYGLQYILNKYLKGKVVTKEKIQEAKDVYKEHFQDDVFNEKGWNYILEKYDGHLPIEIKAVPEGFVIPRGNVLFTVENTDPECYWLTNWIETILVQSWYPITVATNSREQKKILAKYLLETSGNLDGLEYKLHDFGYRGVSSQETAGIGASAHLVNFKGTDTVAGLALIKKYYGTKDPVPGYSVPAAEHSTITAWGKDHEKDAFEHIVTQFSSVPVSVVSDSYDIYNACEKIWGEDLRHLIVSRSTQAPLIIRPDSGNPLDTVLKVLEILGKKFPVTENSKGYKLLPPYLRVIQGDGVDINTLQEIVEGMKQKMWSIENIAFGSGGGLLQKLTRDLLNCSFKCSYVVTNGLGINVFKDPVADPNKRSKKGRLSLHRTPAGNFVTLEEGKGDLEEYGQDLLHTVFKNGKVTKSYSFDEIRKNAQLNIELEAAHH
In short: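 Inhibition of E. coli-expressed His-tagged human NAMPT, measured as NMN formation by mass spectrometry after a 30 min room-temperature reaction containing 1 μM NAM, 100 μM PRPP and 2.5 mM ATP.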

A2780 cells = assay: In-vitro cell proliferation assay (SRB), A2780 cells; type: cell-based; details: Homo sapiens, A2780, 72 h, A2780 cells, 72 hours, read-out: A2780 IC50
In short: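 Growth inhibition was derived from background-corrected SRB absorbance (570 nm), measured on cells fixed in 6% TCA after three days of compound treatment under 5% CO2 at 37° C.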

Compound	IC50 (NAMPT; NAMPT enzymatic assay)	IC50 (A2780 cells; SRB) [nM]	IC50 (NAMPT; NAMPT enzymatic reaction) [nM]	IC50 (A2780 cells; SRB assay) [nM]
CC(C)NC(=O)c1cc(S(=O)(=O)c2ccc(CNC(=O)c3cc4ccncc4s3)cc2)ccc1F	21.3 nM	6.8		
O=C(NCc1ccc(S(=O)(=O)c2cccc(N3CCCCC3)c2)cc1)c1cnc2[nH]ncc2c1	53.6 nM	14		
N#Cc1ccc(S(=O)(=O)c2ccc(CNC(=O)c3cnc4[nH]ncc4c3)cc2)cc1 [N-({4-[(4-cyanobenzene)sulfonyl]phenyl}methyl)-1H-pyrazolo[3,4-b]pyridine-5-carboxamide]		20.8	28.4	
O=C(NCc1ccc(S(=O)(=O)c2cccc3c2Oc2ccccc2S3)cc1)c1ccc2nccn2c1 [N-{[4-(phenoxathiine-4-sulfonyl)phenyl]methyl}imidazo[1,2-a]pyridine-6-carboxamide]	2.15 nM	2.18		
Cc1cc(S(=O)(=O)c2ccc(CNC(=O)c3cc4cnccc4[nH]3)cc2)c(C)cc1F		12.8	51.4	
O=C(NCc1ccc(S(=O)(=O)c2cccc(C(=O)NC3CCCC3)c2)cc1)c1cnc2[nH]ncc2c1 [N-[(4-{[3-(cyclopentylcarbamoyl)benzene]sulfonyl}phenyl)methyl]-1H-pyrazolo[3,4-b]pyridine-5-carboxamide]	33.3 nM	33		
Cc1ccc(Cl)c(S(=O)(=O)c2ccc(CNC(=O)c3cc4cnccc4[nH]3)cc2)c1		9.1	18.8	
O=C(COc1cccnc1)Nc1ccc(S(=O)(=O)N2CCCCC2)cc1 [N-[4-(piperidine-1-sulfonyl)phenyl]-2-(pyridin-3-yloxy)acetamide]			1.1	6.6
O=C(NCc1ccc(S(=O)(=O)c2cnc3ccc(Cl)cn23)cc1)c1cc2cnccc2[nH]1 [N-[(4-{6-chloroimidazo[1,2-a]pyridine-3-sulfonyl}phenyl)methyl]-1H-pyrrolo[3,2-c]pyridine-2-carboxamide]	13.2 nM	1.4		
CC(C)COc1cc(F)cc(S(=O)(=O)c2ccc(CNC(=O)c3cnc4[nH]ncc4c3)cc2)c1 [N-[(4-{[3-fluoro-5-(2-methylpropoxy)benzene]sulfonyl}phenyl)methyl]-1H-pyrazolo[3,4-b]pyridine-5-carboxamide]	11.2 nM	9.49		
O=C(NCc1ccc(S(=O)(=O)c2cccc3c2OCC3)cc1)c1cc2ccncc2o1 [N-{[4-(2,3-dihydro-1-benzofuran-7-sulfonyl)phenyl]methyl}furo[2,3-c]pyridine-2-carboxamide]	6 nM	7.1		
O=C(NCc1ccc(S(=O)(=O)c2cccc(C(=O)NC3CCCC3)c2)cc1)c1ccc2nccn2c1	10.3 nM	16.2		
Cc1ccc(Cl)c(S(=O)(=O)c2ccc(CNC(=O)c3cc4ccncc4s3)cc2)c1		4.9	2.2	
Cc1nc(C)c(S(=O)(=O)c2ccc(CNC(=O)c3cc4ccncc4o3)cc2)s1 [N-{[4-(dimethyl-1,3-thiazole-5-sulfonyl)phenyl]methyl}furo[2,3-c]pyridine-2-carboxamide]	8.3 nM	10.3		
O=C(NCc1ccc(S(=O)(=O)c2ccc(N3CCOCC3)cc2)cc1)c1cc2ccncc2s1	1.6 nM	1.5		
Cc1cc(C)c(S(=O)(=O)c2ccc(CNC(=O)c3cnc4nccn4c3)cc2)cc1C		24	6.9	
CC(C)Oc1ccc(Cl)cc1S(=O)(=O)c1ccc(CNC(=O)c2cc3ccncc3o2)cc1	9.1 nM	12.1		
COc1ccc2cc(S(=O)(=O)c3ccc(CNC(=O)c4ccc5nccn5c4)cc3)ccc2c1 [N-{[4-(6-methoxynaphthalene-2-sulfonyl)phenyl]methyl}imidazo[1,2-a]pyridine-6-carboxamide]	2.7 nM	1.8		
O=C(NCc1ccc(S(=O)(=O)c2cc(F)cc(N3CCCC3)c2)cc1)c1cc2ccncc2s1	1.2 nM	2.7		
COc1cc(F)c(F)cc1S(=O)(=O)c1ccc(CNC(=O)c2cc3cnccc3[nH]2)cc1 [N-({4-[(4,5-difluoro-2-methoxybenzene)sulfonyl]phenyl}methyl)-1H-pyrrolo[3,2-c]pyridine-2-carboxamide]			14	6
O=C(NCc1ccc(S(=O)(=O)c2cc(F)ccc2CO)cc1)c1ccc2nccn2c1	10.4 nM	65		
CCCOc1cccc(F)c1S(=O)(=O)c1ccc(CNC(=O)c2ccc3nccn3c2)cc1		1	91.4	
CCCCOc1cccc(F)c1S(=O)(=O)c1ccc(CNC(=O)c2cc3cnccc3[nH]2)cc1		5.6	8.8	
O=C(NCc1ccc(S(=O)(=O)c2cnc3ccc(Cl)cn23)cc1)c1cc2ccncc2s1 [N-[(4-{6-chloroimidazo[1,2-a]pyridine-3-sulfonyl}phenyl)methyl]thieno[2,3-c]pyridine-2-carboxamide]	1.2 nM	0.4		

Compound	IC50 (NAMPT; NAMPT enzymatic assay)	IC50 (A2780 cells; SRB) [nM]	IC50 (NAMPT; NAMPT enzymatic reaction) [nM]	IC50 (A2780 cells; SRB assay) [nM]
COCc1cccc(S(=O)(=O)c2ccc(CNC(=O)c3ccc4nccn4c3)cc2)c1	6.7 nM	6.8		
Cc1ccc(S(=O)(=O)c2ccc(CNC(=O)c3cc4cnccc4[nH]3)cc2)c(F)c1 [N-({4-[(2-fluoro-4-methylbenzene)sulfonyl]phenyl}methyl)-1H-pyrrolo[3,2-c]pyridine-2-carboxamide]			11	21
NS(=O)(=O)c1cccc(S(=O)(=O)c2ccc(CNC(=O)c3cnc4[nH]ncc4c3)cc2)c1 [N-({4-[(3-sulfamoylbenzene)sulfonyl]phenyl}methyl)-1H-pyrazolo[3,4-b]pyridine-5-carboxamide]		100 to 1000	30.1	
CCCCOc1ccc(S(=O)(=O)c2ccc(CNC(=O)c3cc4ccncc4o3)cc2)cc1F		13.9	12.3	
O=C(NCc1ccc(S(=O)(=O)c2cc(F)ccc2CO)cc1)c1cc2cnccc2[nH]1	16.9 nM	67.5		
O=C(NCc1ccc(S(=O)(=O)c2ccc(OC(F)(F)F)cc2)cc1)c1cnc2nccn2c1	5 nM	17.6		
O=C(NCc1ccc(S(=O)(=O)c2ccccc2)cc1)N1CCc2[nH]ncc2C1 [N-{[4-(benzenesulfonyl)phenyl]methyl}-1H,4H,5H,6H,7H-pyrazolo[4,3-c]pyridine-5-carboxamide]			> 2000	> 2000
N#Cc1ccc(S(=O)(=O)c2ccc(CNC(=O)c3cc4ccncc4o3)cc2)cc1 [N-({4-[(4-cyanobenzene)sulfonyl]phenyl}methyl)furo[2,3-c]pyridine-2-carboxamide]		30.9	5.3	
CCCCOc1cc(F)ccc1S(=O)(=O)c1ccc(CNC(=O)c2cc3ccncc3o2)cc1		66.5	33.5	
COc1ccc(C(C)=O)cc1S(=O)(=O)c1ccc(CNC(=O)c2cc3cnccc3[nH]2)cc1 [N-({4-[(5-acetyl-2-methoxybenzene)sulfonyl]phenyl}methyl)-1H-pyrrolo[3,2-c]pyridine-2-carboxamide]			20	6
O=C(NCc1ccc(S(=O)(=O)c2cc(Cl)cc(C(F)(F)F)c2)cc1)c1cnc2nccn2c1	4.4 nM	0.4		
O=C(NCc1ccc(S(=O)(=O)c2cccc(N3CCOCC3)c2)cc1)c1cc2ccncc2s1	4 nM and 3.6 nM	1.9		
COc1cccc(S(=O)(=O)c2ccc(CNC(=O)c3cnc4nccn4c3)cc2)c1 [N-({4-[(3-methoxybenzene)sulfonyl]phenyl}methyl)imidazo[1,2-a]pyrimidine-6-carboxamide]		12.4	2	
COc1ccc(OC(F)(F)F)cc1S(=O)(=O)c1ccc(CNC(=O)c2cnc3[nH]ncc3c2)cc1	92.6 nM	24.6		
O=C(NCc1ccc(S(=O)(=O)c2cccc(Cl)c2)cc1)c1cc2ccncc2o1 [N-({4-[{3-chlorobenzene)sulfonyl]phenyl}methyl)furo[2,3-c]pyridine-2-carboxamide]		3.3	6	
CN(C)c1ccc(S(=O)(=O)c2ccc(CNC(=O)c3cnc4nccn4c3)cc2)cn1 [N-({4-[6-(dimethylamino)pyridine-3-sulfonyl]phenyl}methyl)imidazo[1,2-a]pyrimidine-6-carboxamide]	2.7 nM	5.9		
COc1ccc(C(C)C)cc1S(=O)(=O)c1ccc(CNC(=O)c2cc3cnccc3[nH]2)cc1 [N-[(4-{[2-methoxy-5-(propan-2-yl)benzene]sulfonyl}phenyl)methyl]-1H-pyrrolo[3,2-c]pyridine-2-carboxamide]			61	12
CC(C)COc1cc(F)cc(S(=O)(=O)c2ccc(CNC(=O)c3cc4cnccc4[nH]3)cc2)c1	13.2 nM	7		
Cn1cc2cc(S(=O)(=O)c3ccc(CNC(=O)c4cnc5nccn5c4)cc3)ccc2n1 [N-{[4-(2-methyl-2H-indazole-5-sulfonyl)phenyl]methyl}imidazo[1,2-a]pyrimidine-6-carboxamide]	1.2 nM	8.2		
O=C(NCc1ccc(S(=O)(=O)c2ccc(C(F)(F)F)c(Cl)c2)cc1)c1cc2ccncc2o1	7.9 nM	6.2		
Cc1ccc(Cl)c(S(=O)(=O)c2ccc(CNC(=O)c3cnc4[nH]ncc4c3)cc2)c1F [N-({4-[(6-chloro-2-fluoro-3-methylbenzene)sulfonyl]phenyl}methyl)-1H-pyrazolo[3,4-b]pyridine-5-carboxamide]	112 nM	100 to 1000		
COc1ccc(S(=O)(=O)c2ccc(CNC(=O)c3cnc4nccn4c3)cc2)c(C)c1		67.9	2.4	
Cn1cc2ccc(S(=O)(=O)c3ccc(CNC(=O)c4cnc5nccn5c4)cc3)cc2n1 [N-{[4-(2-methyl-2H-indazole-6-sulfonyl)phenyl]methyl}imidazo[1,2-a]pyrimidine-6-carboxamide]	1.2 nM	6.1		
